From paper PMC4901312, “Ecological factors drive natural selection pressure of avian aryl hydrocarbon receptor 1 genotypes” (Scientific Reports, 2016)

Experiments:
Experiment in all cases: luciferase reporter gene transactivation assay (ckCYP1A5 promoter) in transfected COS-7 cells; LOEC
Assay type in all cases: cell-based
[1] = biological target: T1, common cormorant AHR1 (ccAHR1) (Phalacrocorax carbo, UniProt Q76CM2)
T1 construct: gene AHR 1; full-length cDNA in pcDNA3.1 zeo (+), expressed in COS-7 cells; with chicken ARNT1 (ckARNT1)
T1 sequence (Q76CM2 1-860): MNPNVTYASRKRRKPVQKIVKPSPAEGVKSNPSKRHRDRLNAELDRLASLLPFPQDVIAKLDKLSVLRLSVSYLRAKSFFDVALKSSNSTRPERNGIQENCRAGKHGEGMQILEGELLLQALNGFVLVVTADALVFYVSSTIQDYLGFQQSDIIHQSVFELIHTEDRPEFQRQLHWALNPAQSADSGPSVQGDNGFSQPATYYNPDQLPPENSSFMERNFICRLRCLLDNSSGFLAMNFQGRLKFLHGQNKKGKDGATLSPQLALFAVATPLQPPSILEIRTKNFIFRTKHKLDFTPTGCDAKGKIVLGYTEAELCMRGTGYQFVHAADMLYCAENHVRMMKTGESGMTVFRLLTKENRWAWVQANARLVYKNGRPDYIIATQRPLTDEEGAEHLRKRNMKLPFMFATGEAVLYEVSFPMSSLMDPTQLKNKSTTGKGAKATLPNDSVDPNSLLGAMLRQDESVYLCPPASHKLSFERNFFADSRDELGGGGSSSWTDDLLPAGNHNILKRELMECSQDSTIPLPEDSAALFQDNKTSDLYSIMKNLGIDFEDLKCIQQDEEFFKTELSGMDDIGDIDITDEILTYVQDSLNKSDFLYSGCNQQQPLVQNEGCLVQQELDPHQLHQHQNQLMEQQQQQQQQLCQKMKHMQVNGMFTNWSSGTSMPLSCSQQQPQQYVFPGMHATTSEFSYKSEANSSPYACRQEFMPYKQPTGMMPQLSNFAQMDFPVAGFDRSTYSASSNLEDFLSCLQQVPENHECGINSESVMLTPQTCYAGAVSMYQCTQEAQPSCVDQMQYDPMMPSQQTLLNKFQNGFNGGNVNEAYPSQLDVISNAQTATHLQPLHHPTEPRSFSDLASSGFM

[2] = biological target: T2, black-footed albatross AHR1 (bfaAHR1) (Phoebastria nigripes, UniProt Q76EQ7)
T2 construct: full-length cDNA in pcDNA3.1 zeo (+), expressed in COS-7 cells; with chicken ARNT1 (ckARNT1)
T2 sequence (Q76EQ7 1-861): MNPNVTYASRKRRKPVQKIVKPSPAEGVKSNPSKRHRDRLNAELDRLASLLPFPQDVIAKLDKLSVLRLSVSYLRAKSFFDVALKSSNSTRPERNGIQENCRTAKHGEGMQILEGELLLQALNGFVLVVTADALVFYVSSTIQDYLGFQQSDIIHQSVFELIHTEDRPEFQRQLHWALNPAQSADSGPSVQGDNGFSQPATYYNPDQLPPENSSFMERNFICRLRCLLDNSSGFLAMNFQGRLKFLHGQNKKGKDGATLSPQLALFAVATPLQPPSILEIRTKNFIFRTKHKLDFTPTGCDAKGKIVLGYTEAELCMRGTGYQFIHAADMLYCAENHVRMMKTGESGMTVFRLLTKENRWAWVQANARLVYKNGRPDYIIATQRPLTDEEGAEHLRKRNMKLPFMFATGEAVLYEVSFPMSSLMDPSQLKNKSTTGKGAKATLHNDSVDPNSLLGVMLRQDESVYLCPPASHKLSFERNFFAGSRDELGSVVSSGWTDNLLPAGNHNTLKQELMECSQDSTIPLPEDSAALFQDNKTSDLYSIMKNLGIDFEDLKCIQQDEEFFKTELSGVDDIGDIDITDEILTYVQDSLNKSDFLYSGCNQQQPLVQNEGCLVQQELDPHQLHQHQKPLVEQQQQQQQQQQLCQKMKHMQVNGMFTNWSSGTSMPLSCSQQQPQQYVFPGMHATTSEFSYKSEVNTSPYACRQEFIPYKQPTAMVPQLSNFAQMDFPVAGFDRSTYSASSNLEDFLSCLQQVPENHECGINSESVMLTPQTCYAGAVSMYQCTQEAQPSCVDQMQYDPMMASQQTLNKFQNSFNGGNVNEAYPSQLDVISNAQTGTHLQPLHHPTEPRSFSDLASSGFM

[3] = biological target: T3, chicken AHR1 (ckAHR1) (Gallus gallus, UniProt Q9I9E2)
T3 construct: full-length cDNA in pcDNA3.1 zeo (+), expressed in COS-7 cells; with chicken ARNT1 (ckARNT1)
T3 sequence (Q9I9E2 1-858): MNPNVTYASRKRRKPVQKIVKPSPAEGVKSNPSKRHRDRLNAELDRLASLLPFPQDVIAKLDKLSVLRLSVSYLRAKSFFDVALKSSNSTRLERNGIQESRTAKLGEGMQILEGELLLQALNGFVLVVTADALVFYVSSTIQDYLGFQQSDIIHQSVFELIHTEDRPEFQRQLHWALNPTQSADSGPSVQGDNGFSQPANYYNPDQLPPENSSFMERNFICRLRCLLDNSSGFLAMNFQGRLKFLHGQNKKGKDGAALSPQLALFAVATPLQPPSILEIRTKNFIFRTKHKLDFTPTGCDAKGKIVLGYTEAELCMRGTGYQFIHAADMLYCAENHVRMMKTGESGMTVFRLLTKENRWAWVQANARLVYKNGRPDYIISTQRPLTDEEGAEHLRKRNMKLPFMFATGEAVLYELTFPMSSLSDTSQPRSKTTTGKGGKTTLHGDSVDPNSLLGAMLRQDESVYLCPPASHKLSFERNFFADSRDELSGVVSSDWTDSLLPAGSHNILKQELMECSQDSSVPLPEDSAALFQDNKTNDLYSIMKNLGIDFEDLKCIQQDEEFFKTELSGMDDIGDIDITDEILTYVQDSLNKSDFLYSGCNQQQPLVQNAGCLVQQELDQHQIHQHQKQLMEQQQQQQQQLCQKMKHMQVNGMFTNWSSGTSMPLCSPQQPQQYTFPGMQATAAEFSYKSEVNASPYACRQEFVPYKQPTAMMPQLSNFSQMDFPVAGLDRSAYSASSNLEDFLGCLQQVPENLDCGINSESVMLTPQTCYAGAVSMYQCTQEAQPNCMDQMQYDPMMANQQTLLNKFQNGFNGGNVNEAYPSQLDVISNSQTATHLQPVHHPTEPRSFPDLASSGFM

With Brc1ccc2c(c1)Oc1cc(Br)cc(Br)c1O2 [1,3,7-TriBDD, 1,3,7-tribromodibenzo-p-dioxin] the “luciferase reporter gene transactivation assay (ckCYP1A5 promoter) in transfecte” value [1] was 120 nM, the “luciferase reporter gene transactivation assay (ckCYP1A5 promoter) in transfecte” value [2] was 12 nM and the “luciferase reporter gene transactivation assay (ckCYP1A5 promoter) in transfecte” value [3] was 1.2 nM.
